# Experimental data published in patent US20080031931A1, “ORGANOTELLURIUM AND SELENIUM-BASED ANTIMICROBIAL FORMULATIONS AND ARTICLES” (Andover Healthcare, Inc., priority 2006, published 2008).
# Counter-ions that a name gives are not always drawn.
# Tested on: Methicillin-Resistant Staphylococcus aureus (MRSa) ATCC 33592
# Assay: Time-kill (rate-of-kill) suspension assay against MRSa
# Type: cell-based
# Excerpt: Analyzing the efficacy of antimicrobial agents may be performed by various suspension and susceptibility methods. This study is designed to examine the rate-of-kill of a test substance against sponsor selected pure cultures of microorganisms. This is accomplished by exposing the target microorganism(s) to the test substance and inspecting the solution for potential survivors at various time periods. The experimental design in this protocol meets these requirements.
# A suspension of bacterial cells is exposed to the test substance for specified contact times. After exposure, an aliquot of the suspension is transferred to a neutralizer and assayed for survivors. Appropriate purity, sterility, microorganism population and neutralization controls are performed.
# Using a stock culture of the test organism, a culture of the test organism was struck onto the culture medium listed above. The bacterial cultures were incubated for 24-48 hours at 35-37° C. (alternate incubation may be utilized for certain strains). To produce a suspension containing approximately 1×10^8-1×10^9 CFU/mL, the culture suspension was adjusted with Butterfield's Buffer to yield a suspension matching a 0.5 McFarland turbidity standard.
# The test substance to be tested was prepared by transferring a 5.95 mL aliquot of the prepared test substance to a sterile vessel for testing procedures. The test substances were assayed for microbial killing activity within 3 hours of preparation.
# A […] aliquot of the standardized inoculum was added to the test substance representing the start of the test exposure (time=0 hr). The inoculated test substance was immediately mixed thoroughly using a laboratory vortex mixer or other applicable method. The inoculated and mixed test substance was held at the specified temperature.
# A 1.0 mL aliquot of the inoculated test substance was transferred to 9 mL of neutralizer broth (10× dilution) at each of the times indicated. Four additional 1:10 dilutions in Butterfield's Buffer were also prepared. Using a standard microbiological spread plate count procedure, 1.0 mL aliquots of each dilution (10^−1-10^−4) were plated in duplicate to the appropriate recovery media.
# A 5.0 mL aliquot of the neutralized sample (10× dilution) was transferred to a sterile 0.2-0.45 μm filter apparatus system pre-wetted with 10 mL sterile diluent. The sample was filter concentrated and the filter was rinsed using ≧50 mL sterile diluent. The filter was then aseptically removed and placed on the surface of the recovery agar medium to determine the percent MRSa survival.
# The bacterial subculture plates were incubated for 48±4 hours at 35-37° C. Subculture plates may be refrigerated at 2-8° C. for ≦3 days prior to examination without affecting the results. Following incubation, the subculture tubes and plates were visually examined for growth. The agar plates were enumerated and recorded. Log and percent reductions will be determined for each time point.
# As a control for the viability of the test organism, an equivalent volume of untreated inoculum (0.1 mL) is added to 9.9 mL Butterfield's Buffer (same volume as the test substance). This suspension was neutralized as in the test procedure. The suspension was serially diluted and appropriate dilutions plated using standard microbiological techniques. […] The acceptance criteria for this study control is growth and the value is used for calculation purposes.
# Test Data CFU/mL: (avg. # colonies found/plate @ dilution used) (dilution factor) (volume of neutralized solution)/(volume plated) Percent Reduction: [1−(test survivors/test population control)]×100 Log10 Reduction: Log10 (test population control)—Log10 (test survivors) Further details of the microbial time-killing studies can be found in: • 1. American Society for Testing and Materials (ASTM). E2315-03, Guide for Assessment of Microbiocidal Activity Using a Time-Kill Procedure, Volume 11.05, Copyright 2005 ASTM International; and • 2. Food and Drug Administration. […]
# [1] = 2 hour exposure, room temperature (20° C.), Agent 4 dissolved in DMSO, tested at 1, 10, and 100 mM
# [2] = 4 hour exposure, room temperature (20° C.), Agent 4 dissolved in DMSO, tested at 1, 10, and 100 mM
# [3] = 6 hour exposure, room temperature (20° C.), Agent 4 dissolved in DMSO, tested at 1, 10, and 100 mM
# [4] = 2 hour exposure, room temperature (20° C.), Agent 1 at 82 mM, Agent 2 at 41 mM, Agent 3 at 47 mM, dihydrochloride
# [5] = 4 hour exposure, room temperature (20° C.), Agent 1 at 82 mM, Agent 2 at 41 mM, Agent 3 at 47 mM, dihydrochloride
# [6] = 6 hour exposure, room temperature (20° C.), Agent 1 at 82 mM, Agent 2 at 41 mM, Agent 3 at 47 mM, dihydrochloride
# [7] = 2 hour exposure, room temperature (20° C.), Agent 1 at 82 mM, Agent 2 at 41 mM, Agent 3 at 47 mM, 1.13×10^6 CFU/mL
# [8] = 4 hour exposure, room temperature (20° C.), Agent 1 at 82 mM, Agent 2 at 41 mM, Agent 3 at 47 mM
# [9] = 6 hour exposure, room temperature (20° C.), Agent 1 at 82 mM, Agent 2 at 41 mM, Agent 3 at 47 mM
smiles,measurement,setting,value
C=C(C)C(=O)OCC[Se]C#N [2-selenocyanatoethyl methacrylate],log10 reduction of MRSa,[1],> 4.1 log10
same,reduction of MRSa,[1],> 99.9%
same,log10 reduction of MRSa,[2],> 4.1 log10
same,reduction of MRSa,[2],> 99.9%
same,log10 reduction of MRSa,[3],> 4.1 log10
same,reduction of MRSa,[3],> 99.9%
"NCC[Se][Se]CCN [Agent 1, selenocystamine dihydrochloride]",reduction of MRSa,"2 hour exposure, room temperature (20° C.), Agent 1 at 82 mM, Agent 2 at 41 mM, Agent 3 at 47 mM, 1.13×10^6 CFU/mL, dihydrochloride",51.3%
same,log10 reduction of MRSa,[4],0.31 log10
same,log10 reduction of MRSa,[5],0.54 log10
same,reduction of MRSa,[5],71.7%
same,log10 reduction of MRSa,[6],1.004 log10
same,reduction of MRSa,[6],90.1%
"NCC[Se][Se]CCN [Agent 2, selenocystamine dihydrochloride, reference compound]",reduction of MRSa,[7],95.5%
same,log10 reduction of MRSa,[4],1.34 log10
same,log10 reduction of MRSa,[5],1.946 log10
same,reduction of MRSa,[5],98.9%
same,log10 reduction of MRSa,[6],2.024 log10
same,reduction of MRSa,[6],99.1%
"NCC[Te]CCN [Agent 3, 2,2′-tellurodiethanamine 2 HCl]",log10 reduction of MRSa,"2 hour exposure, room temperature (20° C.), Agent 1 at 82 mM, Agent 2 at 41 mM, Agent 3 at 47 mM",3.4 log10
same,reduction of MRSa,[7],> 99.9%
same,log10 reduction of MRSa,[8],> 4.1 log10
same,reduction of MRSa,[8],> 99.9%
same,log10 reduction of MRSa,[9],> 4.1 log10
same,reduction of MRSa,[9],> 99.9%
"O=[Te]([O-])[O-].[K+].[K+] [Test Substance 1, Potassium tellurite, reference compound]",reduction of MRSa,"all time points (exposure times of 2, 4 and 6 hours), starting ~3-4×10^6 CFU/mL MRSA ATCC 33592",very little to no reduction
